Three compounds from patent US6596854B2, “Isolated nucleic acid molecule encoding a variant human eukaryotic Intiation Factor 4E protein” (Emory University, priority 1996, dated 2003) can be followed below.

“Also recorded” adds a separate entry of the source.

In one data set the target is T1, eIF-4E (Homo sapiens, UniProt P06730).
T1 construct: made in house; host or cells: E. coli BL21(DE3), pET-3d
Briefly: Photoaffinity labeling of eIF-4E with labeled GTP analog. The format is binding. To be noted: competition and saturation. From the text:
Studies on the binding site of eIF-4E have defined a sequence of amino acids, involved in binding m^7G-RNA extending approximately from positions 112-123, numbering from the translation start site. The region of amino acids involved in the binding of eIF-4E to m^7G-RNA was identified using photoaffinity labeling with a labeled analog, [γ-^32P] 8-N3GTP. [Jayaram, B. et al. (1994) J. Biol. Chem. 269:3233-3242; Shoemaker, M. T. et al. (1993) J. Biol. Chem. 32:1883-1890; Salvucci, M. E. et al. (1992) Biochemistry 31:4479-4487]. […] The analog binding to eIF-4E was rendered irreversible by a photo-chemical reaction and a tryptic peptide bearing the analog label was isolated by aluminum-III chelate chromatography and reverse phase HPLC. Once the binding region peptide was identified, it was then possible to employ alanine-scanning mutations to determine the contribution of specific amino acid residues to the binding, and to generate modified eIF-4E proteins with altered binding affinities. Modified eIF-4E analog proteins having either increased or decreased binding affinities have been made. […] Enhanced binding affinity can lead to increased capped RNA stability and increased duration of expression. Decreased binding affinity can be of value where sensitivity to regulatory influences is desired. […]

Data set [1] relates to translation of globin mRNA. Briefly: Cell-free translation in eIF-4E-depleted rabbit reticulocyte lysates. In kind it is biochemical. On the procedure:
Translational activity of eIF-4E variants: The ability of eIF-4E variants to initiate translation was examined in rabbit reticulocyte lysates which were depleted of endogenous eIF-4E by m^7GTP-Sepharose chromatography [Svitkin Y. V. et al. (1996) EMBO J. 15:7147-7155]. Western blotting analysis using anti-eIF-4E antibodies detected no eIF-4E in lysates after chromatography. […] The relative abilities of eIF-4E variants to restore globin mRNA translation were tested for all variants except W113A.
Cell-free translations: Nuclease-treated rabbit reticulocyte lysates (Promega) were depleted of endogenous eIF-4E by chromatography on m^7GTP-Sepharose according to the previously described protocol (Svitkin et al. 1996, supra). Aliquots of eIF-4E-depleted lysates were stored in liquid nitrogen vapor. eIF-4E depletion was verified by Western blotting analysis (data not shown). Cell-free translations were performed at 30° C. as described in detail in the Promega technical manual. […] In the case of L117A, which was not highly purified, a sufficient quantity of the preparation was added to approximate 75 ng of L117A. […] Dried filter papers were placed in vials with scintillation liquid and [^35S]methionine incorporated into protein was quantitated by liquid scintillation spectrometry.

The format of data set [2] is physicochemical, E. coli. Here is the method: Purification was carried out essentially as described by Hagedorn, et al. (1997) Protein Expression and Purif. 9:53-60, which is incorporated herein by reference. BL21(DE3) cells expressing human eIF-4E were grown in M9ZB media with ampicillin to an OD600 of 0.6-0.7 at which time cultures were induced with 0.4 mM IPTG [Studier, F. W. et al. (1990) supra]. […] Culture media was centrifuged at 500×g for 15 min, and E. coli pellets were suspended in 3 ml of 50 mM Tris-HCl pH 8.0, 100 mM KCl, 1 mM EDTA, 1 mM DTT, 1 mM PMSF, and 0.1 mg/ml lysozyme per gram wet weight. Samples were stirred intermittently on ice for 15 min and sonicated. Triton X-100 was added to a final concentration of 0.1%. The samples were mixed for 15 min at 4° C. and centrifuged at 15,000 rpm in a Sorvall SS-34 rotor for 20 min. Supernatants were used as starting material for subsequent chromatography purification steps.
In order to assess the solubility of each variant, cells were lysed and centrifuged as described supra. Supernatants prepared from equivalent wet weights of cells were analyzed by SDS-PAGE and Western blotting with anti-eIF-4E antibodies. Supernatants from all variants contained soluble eIF-4E. […] Except for the W113A and L117A variants, no major differences in solubility were observed among the other alanine variants studied.

Data set [3] addresses m^7GTP (mRNA cap structure). Kind of data set: Fluorescence quenching of intrinsic tryptophan of eIF-4E upon m^7GTP binding. On the procedure:
FIGS. 4A and 4B. […] The fluorescence intensity of recombinant human eIF-4E binding to m^7GTP as a function of m^7GTP concentration was measured. All solutions were prepared in buffer A at pH 7.6, 25° C. and the concentration of eIF-4E was 1 μM. An excitation wave length of 280 nm was used to monitor the fluorescence intensity at 330 nm.
Fluorescence measurements were made at 25° C. on a SPEX Fluorolog-T2 spectrofluorometer equipped with a high intensity (450 w) xenon arc lamp. An excitation wave length of 280 nm was used to monitor the tryptophan fluorescence emission of recombinant eIF-4E at 330 nm. Excitation and emission slit widths of 1.4 and 2.0 mm respectively were used and a 1.0 cm sample cell pathlength was employed. The buffer used for all fluorescence measurements was 20 mM HEPES at pH 7.6 and 1 mM DTT (designated Buffer A in FIG. 4). The steady state data were collected and analyzed as described previously [Carberry, S. E. et al. (1989) Biochemistry 28:8078-8083; Carberry, S. E. et al. (1990) Biochemistry 29:3337-3341. An excitation wavelength of 289 nm was used to monitor the tryptophan fluorescence emission of the proteins. Excitation and emission slit widths of 1.5 mm and 2.0 mm respectively were used and cell path length was 1.0 cm.
The preparation of large quantities of recombinant eIF-4E variants allowed us to directly determine the Kd of binding to the mRNA cap structure. Quantitation was performed by measuring the fluorescence quenching of intrinsic tryptophan residues in eIF-4E upon m^7GTP binding at 25≅ C. (Example 3). […] This is possibly a consequence of a lower stability of these variants at the higher temperature in the fluorescence quenching assay.

T1 sequence (P06730 whole entry): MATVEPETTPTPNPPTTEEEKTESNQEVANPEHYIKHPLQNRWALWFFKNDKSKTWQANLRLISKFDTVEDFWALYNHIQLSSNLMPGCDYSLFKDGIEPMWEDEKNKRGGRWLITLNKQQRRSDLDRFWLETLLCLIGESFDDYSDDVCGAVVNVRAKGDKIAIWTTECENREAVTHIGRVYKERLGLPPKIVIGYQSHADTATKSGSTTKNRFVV

As for `[N-]=[N+]=Nc1nc2c(=O)[nH]c(N)nc2n1C1OC(COP(=O)(O)OP(=O)(O)O[32P](=O)(O)O)C(O)C1O` (centres unmarked) [[γ-^32P] 8-N3GTP], the “binding of analog to eIF-4E” value at eIF-4E was “bind to eIF-4E in competition with m^7GTP and with capped RNA; also recorded: the binding site was saturated by the analog”.
`Cn1c[n+]([C@@H]2O[C@H](COP(=O)(O)OP(=O)([O-])O)[C@@H](O)[C@H]2O)c2nc(N)[nH]c(=O)c21` [m^7GDP, reference compound]: the “effect on eIF-4E-dependent translation” value in data set [1] (added to incubation containing wild-type eIF-4E) was “inhibited the eIF-4E-dependent translation”.
The Kd is the free concentration of one partner at which half of the binding sites on the other are occupied at equilibrium, for simple one-to-one binding. On to “wild-type eIF-4E: purified recombinant human eukaryotic Initiation Factor 4E expressed in E. coli, non-phosphorylated”, for which the “increase in the translation of globin mRNA” value in data set [1] (addition to eIF-4E-depleted lysate) is given as 2-4 fold. Further, in data set [2], the “fraction of eIF-4E expressed in E. coli that was soluble” value is given as “Note: Approximately 1-5% of the eIF-4E expressed in E. coli was soluble as estimated by Coomassie blue staining of SDS-PAGE analyzed samples”. For the same compound, in data set [3] (Kd for m^7GTP, fluorescence quenching, 25 C, read-out: Binding constant Kd), the dissociation constant (Kd) is 140 nM. Moreover, the equilibrium binding constant in data set [3] (binding to m^7GTP, pH 7.6 (20 mM HEPES buffer+1 mM DTT), 25° C.) is 10.1±0.3 ×10^5M^−1. Also, the “equilibrium binding constant relative to results obtained using native human eIF-4E” value in data set [3] (compared with Carberry 1989) is 1.5-2 times higher. Also, the binding constant in data set [3] (in vitro, worded as binding to m^7G-RNA) is recorded as 10.1±0.3 ×10^5M^−1.
